Measurements taken from patent US20110282078A1, “CYCLOHEXENE 1,4 -CARBOXYLATES” (Draths Corporation, priority 2009, published 2011).
In brackets after ≈: the same amount, converted by molar mass.

Experiment: approximate solubility at room temperature in ethyl acetate
Type: physicochemical
Settings: organic solvent or mixture
Experimental: A stirred suspension of dried (less than 5 weight percent of water), crude cis,cis or cis,trans muconic acid (200 g) in tetrahydrofuran (THF) (1.8 liter (l)) is heated to 50° C., Within 45 minutes at 50° C. most of the solid dissolves. Activated charcoal (35 g) is added. After 1 hour, the hot suspension is clarified by filtration through a bed of Celite™ diatomaceous earth. The filtrate is evaporated to dryness and the residue is dried under high vacuum to yield pure cis,cis or cis,trans muconic acid (166 g, 83 percent mass recovery). In the case of cis,cis muconic acid, any traces of cis,trans muconic acid can be removed by resuspending the solid twice in refluxing ethyl acetate, which is removed each time by decantation from the cooled solution. The approximate solubilities at room temperature in ethyl acetate are 1 mg/ml for cis,cis muconic acid, 5 mg/ml for cis,trans muconic acid, and 0.1 mg/ml for trans,trans muconic acid.

| solubility [µg/mL] | SMILES |
| --- | --- |
| ~1000 (≈ 7.04 mM) | O=C(O)/C=C\C=C/C(=O)O [cis,cis muconic acid] |
| ~5000 (≈ 35.2 mM) | O=C(O)/C=C\C=C\C(=O)O [cis,trans muconic acid] |
| ~100 (≈ 0.704 mM) | O=C(O)/C=C/C=C/C(=O)O [trans,trans muconic acid] |
